Blank lines part the entries; values can stand above or below the compound they belong to.
System: 327498-153-R-J2-PDC complex spheroid growth, % test/control
Assay: Anticancer human tumor 327498-153-R-J2-PDC patient-derived uterine carcinosarcoma cell line growth inhibition [Asc]
Settings: for IC50: curve of first compound; for viability, T/C: stronger effect = lower value
How it was run: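 Concentration series start at each agent's clinical Cmax, or at 10 microM when none is established, and drop in half-log steps; agents are applied alone or together to complex spheroids built with HUVEC and hMSC.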

[1] = second compound 0.01 µM, first compound 0.00316 µM
[2] = second compound 0.01 µM, first compound 0.01 µM
[3] = second compound 0.01 µM, first compound 0.0316 µM
[4] = second compound 0.01 µM, first compound 0.1 µM
[5] = second compound 0.0316 µM, first compound 0.00316 µM
[6] = second compound 0.0316 µM, first compound 0.01 µM
[7] = second compound 0.0316 µM, first compound 0.0316 µM
[8] = second compound 0.0316 µM, first compound 0.1 µM
[9] = second compound 0.1 µM, first compound 0.00316 µM
[10] = second compound 0.1 µM, first compound 0.01 µM
[11] = second compound 0.1 µM, first compound 0.0316 µM
[12] = second compound 0.1 µM, first compound 0.1 µM
[13] = second compound 0.316 µM, first compound 0.00316 µM
[14] = second compound 0.316 µM, first compound 0.01 µM
[15] = second compound 0.316 µM, first compound 0.0316 µM
[16] = second compound 0.316 µM, first compound 0.1 µM
[17] = second compound 1 µM, first compound 0.00316 µM
[18] = second compound 1 µM, first compound 0.01 µM
[19] = second compound 1 µM, first compound 0.0316 µM
[20] = second compound 1 µM, first compound 0.1 µM
[21] = second compound 0.01 µM, first compound 0.316 µM
[22] = second compound 0.01 µM, first compound 1 µM
[23] = second compound 0.0316 µM, first compound 0.316 µM
[24] = second compound 0.0316 µM, first compound 1 µM
[25] = second compound 0.1 µM, first compound 0.316 µM
[26] = second compound 0.1 µM, first compound 1 µM
[27] = second compound 0.316 µM, first compound 0.316 µM
[28] = second compound 0.316 µM, first compound 1 µM
[29] = second compound 1 µM, first compound 0.316 µM
[30] = second compound 1 µM, first compound 1 µM
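Note: spheroids exposed to compound for 7 days after 3 days of growth.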
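Throughout, for viability, T/C: 100% = DMSO vehicle control wells.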

IC50 (second compound 0.03 µM): 242 nM
IC50 (second compound 0.0949 µM): 48.4 nM
IC50 (second compound 0.3 µM): < 9.49 nM
IC50 (second compound 0.949 µM): < 9.49 nM
IC50 (second compound 3 µM): < 9.49 nM
Compound: Cc1nc(N2CCC3(CC2)COC(C)C3N)c(CO)nc1Sc1ccnc(N)c1Cl (stereo not given) + CCN1C(C(=O)NC23CCC(C(=O)O)(CC2)CC3)C(c2cccc(Cl)c2F)C2(C(=O)Nc3cc(Cl)ccc32)C12CCCCC2
viability, T/C (second compound 0.03 µM, first compound 0.00949 µM): 79.9%
viability, T/C (second compound 0.03 µM, first compound 0.03 µM): 74.8%
viability, T/C (second compound 0.03 µM, first compound 0.0949 µM): 64.1%
viability, T/C (second compound 0.03 µM, first compound 0.3 µM): 44%
viability, T/C (second compound 0.03 µM, first compound 0.949 µM): 41%
viability, T/C (second compound 0.03 µM, first compound 3 µM): 30.3%
viability, T/C (second compound 0.0949 µM, first compound 0.00949 µM): 57%
viability, T/C (second compound 0.0949 µM, first compound 0.03 µM): 58%
viability, T/C (second compound 0.0949 µM, first compound 0.0949 µM): 41.3%
viability, T/C (second compound 0.0949 µM, first compound 0.3 µM): 27.8%
viability, T/C (second compound 0.0949 µM, first compound 0.949 µM): 22.2%
viability, T/C (second compound 0.0949 µM, first compound 3 µM): 15.7%
viability, T/C (second compound 0.3 µM, first compound 0.00949 µM): 30.7%
viability, T/C (second compound 0.3 µM, first compound 0.03 µM): 24.3%
viability, T/C (second compound 0.3 µM, first compound 0.0949 µM): 13.7%
viability, T/C (second compound 0.3 µM, first compound 0.3 µM): 12.3%
viability, T/C (second compound 0.3 µM, first compound 0.949 µM): 8.52%
viability, T/C (second compound 0.3 µM, first compound 3 µM): 6.36%
viability, T/C (second compound 0.949 µM, first compound 0.00949 µM): 6.38%
viability, T/C (second compound 0.949 µM, first compound 0.03 µM): 6.83%
viability, T/C (second compound 0.949 µM, first compound 0.0949 µM): 2.73%
viability, T/C (second compound 0.949 µM, first compound 0.3 µM): 11.8%
viability, T/C (second compound 0.949 µM, first compound 0.949 µM): 2.12%
viability, T/C (second compound 0.949 µM, first compound 3 µM): 2.01%
viability, T/C (second compound 3 µM, first compound 0.00949 µM): 2.07%
viability, T/C (second compound 3 µM, first compound 0.03 µM): 2.17%
viability, T/C (second compound 3 µM, first compound 0.0949 µM): 2.3%
viability, T/C (second compound 3 µM, first compound 0.3 µM): 2.57%
viability, T/C (second compound 3 µM, first compound 0.949 µM): 0.76%
viability, T/C (second compound 3 µM, first compound 3 µM): 0.83%

IC50 (second compound 0.01 µM): 16.2 nM
IC50 (second compound 0.0316 µM): 17 nM
IC50 (second compound 0.1 µM): 17.7 nM
IC50 (second compound 0.316 µM): 14.7 nM
IC50 (second compound 1 µM): 16.6 nM
Compound: Cn1ncnc1[C@H]1c2n[nH]c(=O)c3cc(F)cc(c23)N[C@@H]1c1ccc(F)cc1 + CNC(C)C(=O)NC1CN(S(=O)(=O)c2cccc(S(=O)(=O)N3CCC4CCC(C(=O)NC(c5ccccc5)c5ccccc5)N4C(=O)C(NC(=O)C(C)NC)C3)c2)CCC2CCC(C(=O)NC(c3ccccc3)c3ccccc3)N2C1=O
viability, T/C (second compound 0.01 µM, first compound 0.000316 µM): 98.5%
viability, T/C (second compound 0.01 µM, first compound 0.001 µM): 109%
viability, T/C [1]: 101%
viability, T/C [2]: 68%
viability, T/C [3]: 24.8%
viability, T/C [4]: 8.36%
viability, T/C (second compound 0.0316 µM, first compound 0.000316 µM): 98.9%
viability, T/C (second compound 0.0316 µM, first compound 0.001 µM): 111%
viability, T/C [5]: 98.2%
viability, T/C [6]: 73.8%
viability, T/C [7]: 22.6%
viability, T/C [8]: 8.68%
viability, T/C (second compound 0.1 µM, first compound 0.000316 µM): 98.2%
viability, T/C (second compound 0.1 µM, first compound 0.001 µM): 106%
viability, T/C [9]: 91.2%
viability, T/C [10]: 73.3%
viability, T/C [11]: 27.1%
viability, T/C [12]: 7.43%
viability, T/C (second compound 0.316 µM, first compound 0.000316 µM): 100%
viability, T/C (second compound 0.316 µM, first compound 0.001 µM): 112%
viability, T/C [13]: 111%
viability, T/C [14]: 64.7%
viability, T/C [15]: 21.5%
viability, T/C [16]: 8%
viability, T/C (second compound 1 µM, first compound 0.000316 µM): 99.3%
viability, T/C (second compound 1 µM, first compound 0.001 µM): 105%
viability, T/C [17]: 107%
viability, T/C [18]: 68.9%
viability, T/C [19]: 25.3%
viability, T/C [20]: 8.08%

IC50 (second compound 0.01 µM): 4520 nM
IC50 (second compound 0.0316 µM): 3830 nM
IC50 (second compound 0.1 µM): 3780 nM
IC50 (second compound 0.316 µM): 4070 nM
IC50 (second compound 1 µM): 3710 nM
Compound: O=C(c1cc(Cc2n[nH]c(=O)c3ccccc23)ccc1F)N1CCN(C(=O)C2CC2)CC1 + CNC(C)C(=O)NC1CN(S(=O)(=O)c2cccc(S(=O)(=O)N3CCC4CCC(C(=O)NC(c5ccccc5)c5ccccc5)N4C(=O)C(NC(=O)C(C)NC)C3)c2)CCC2CCC(C(=O)NC(c3ccccc3)c3ccccc3)N2C1=O
viability, T/C [3]: 98.8%
viability, T/C [4]: 105%
viability, T/C [21]: 102%
viability, T/C [22]: 99.2%
viability, T/C (second compound 0.01 µM, first compound 3.16 µM): 67.9%
viability, T/C (second compound 0.01 µM, first compound 10 µM): 11.3%
viability, T/C [7]: 102%
viability, T/C [8]: 100%
viability, T/C [23]: 108%
viability, T/C [24]: 88.5%
viability, T/C (second compound 0.0316 µM, first compound 3.16 µM): 58.7%
viability, T/C (second compound 0.0316 µM, first compound 10 µM): 9.57%
viability, T/C [11]: 97.5%
viability, T/C [12]: 99.9%
viability, T/C [25]: 102%
viability, T/C [26]: 89.8%
viability, T/C (second compound 0.1 µM, first compound 3.16 µM): 57.6%
viability, T/C (second compound 0.1 µM, first compound 10 µM): 9.51%
viability, T/C [15]: 104%
viability, T/C [16]: 107%
viability, T/C [27]: 94.5%
viability, T/C [28]: 91.4%
viability, T/C (second compound 0.316 µM, first compound 3.16 µM): 60.3%
viability, T/C (second compound 0.316 µM, first compound 10 µM): 11.1%
viability, T/C [19]: 96.8%
viability, T/C [20]: 100%
viability, T/C [29]: 94.5%
viability, T/C [30]: 90.3%
viability, T/C (second compound 1 µM, first compound 3.16 µM): 56.4%
viability, T/C (second compound 1 µM, first compound 10 µM): 9.85%

IC50 (second compound 0.01 µM): 391 nM
IC50 (second compound 0.0316 µM): 377 nM
IC50 (second compound 0.1 µM): 377 nM
IC50 (second compound 0.316 µM): 304 nM
IC50 (second compound 1 µM): 430 nM
Compound: O=C(c1ccc(F)c(F)c1Nc1ccc(I)cc1F)N1CC(O)([C@@H]2CCCCN2)C1 + CNC(C)C(=O)NC1CN(S(=O)(=O)c2cccc(S(=O)(=O)N3CCC4CCC(C(=O)NC(c5ccccc5)c5ccccc5)N4C(=O)C(NC(=O)C(C)NC)C3)c2)CCC2CCC(C(=O)NC(c3ccccc3)c3ccccc3)N2C1=O
viability, T/C [1]: 97.4%
viability, T/C [2]: 91.9%
viability, T/C [3]: 81.7%
viability, T/C [4]: 78.5%
viability, T/C [21]: 55.7%
viability, T/C [22]: 23.5%
viability, T/C [5]: 104%
viability, T/C [6]: 98.6%
viability, T/C [7]: 89%
viability, T/C [8]: 76.4%
viability, T/C [23]: 55.7%
viability, T/C [24]: 22.9%
viability, T/C [9]: 104%
viability, T/C [10]: 88%
viability, T/C [11]: 85.8%
viability, T/C [12]: 76.8%
viability, T/C [25]: 56%
viability, T/C [26]: 21.9%
viability, T/C [13]: 105%
viability, T/C [14]: 102%
viability, T/C [15]: 77.7%
viability, T/C [16]: 75.7%
viability, T/C [27]: 48.2%
viability, T/C [28]: 22.6%
viability, T/C [17]: 104%
viability, T/C [18]: 92.9%
viability, T/C [19]: 92.3%
viability, T/C [20]: 80.9%
viability, T/C [29]: 62.5%
viability, T/C [30]: 20%

— PubChem BioAssay AID1963424 (Molecular Pharmacology Branch, DTP, NCI, 2024)
